Experimental data taken from patent US20210275547A1, “Methods of Modulating Activity of a Cyclic Dinucleotide (CDN) with a CDN Transporter-Modulating Agent” (THE REGENTS OF THE UNIVERSITY OF CALIFORNIA, priority 2018, published 2021).
“Also recorded” adds a separate entry of the source.

Tests used:
[1] = target: T1, SLC19A1 (Homo sapiens, UniProt P41440); test: Reporter response to CDNs in THP-1 cells with SLC19A1 knocked down or overexpressed; details: SLC19A1 knockdown vs control, synthetic CDN 1.7 μg/ml, hIFNβ 100 ng/ml, 20 h
T1 sequence (P41440 1-591): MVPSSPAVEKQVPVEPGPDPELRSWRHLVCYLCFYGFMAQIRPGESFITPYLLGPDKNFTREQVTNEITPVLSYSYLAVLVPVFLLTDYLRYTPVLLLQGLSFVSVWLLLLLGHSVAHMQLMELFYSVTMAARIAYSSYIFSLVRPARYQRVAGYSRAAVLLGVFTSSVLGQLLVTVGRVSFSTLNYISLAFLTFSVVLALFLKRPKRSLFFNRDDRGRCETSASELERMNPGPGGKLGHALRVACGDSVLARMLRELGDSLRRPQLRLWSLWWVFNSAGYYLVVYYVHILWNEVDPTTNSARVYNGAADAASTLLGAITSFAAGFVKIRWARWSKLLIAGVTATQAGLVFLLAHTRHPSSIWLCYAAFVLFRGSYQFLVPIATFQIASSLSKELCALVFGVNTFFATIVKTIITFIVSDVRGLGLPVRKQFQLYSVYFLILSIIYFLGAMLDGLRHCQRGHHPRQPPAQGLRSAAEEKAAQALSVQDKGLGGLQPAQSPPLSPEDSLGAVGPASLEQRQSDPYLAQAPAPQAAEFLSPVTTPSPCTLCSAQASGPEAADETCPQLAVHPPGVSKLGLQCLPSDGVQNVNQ
Method: To test the role of SLC19A1 in the response to extracellular CDNs, THP-1 cell lines were created in which SLC19A1 was knocked-down or knocked-out, using conventional methods. SLC19A1 knockdown was confirmed and cells were stimulated with synthetic CDN or hIFNβ.
Panel A) Flow cytometry-generated dot plots of THP-1 cells expressing an ISRE-driven tdTomato reporter. Reporter expression was induced upon stimulation with the synthetic CDN (1.7 μg/ml) for 20 h. Panel B) Validation of targets identified by a genome-wide screen using THP-1 cells described in (Panel A) using conventional methods. Cells expressed a control vector or IRF3 or SLC19A1 gRNA. Cells were stimulated with (Panel B) synthetic CDN (1.7 μg/ml) or (Panel D) human interferon-beta (hIFNβ) (100 ng/ml) for 20 h. Cells were analyzed for reporter by flow cytometry as in (A). E) Indicated cell lines expressing SLC19A1 or vector only were stimulated with synthetic CDN (1.7 μg/ml). Reporter expression was measured 20 h after stimulation.

[2] = test system: THP-1 cells expressing an ISRE-driven tdTomato reporter; test: Synthetic CDN or hIFNβ stimulation of tdTomato reporter THP-1 cells in the presence of sulfasalazine; assay type: cell-based, human
Source text: To identify genes encoding molecules involved in this process, a reporter system was created to detect STING activation in response to extracellular CDNs, in order to perform a genetic screen. The reporter was composed of an Interferon Stimulatory Response Element (ISRE) cassette driving the expression of the fluorescent protein tdTomato. […] Subsequently, THP-1 cells containing the reporter were transduced with a genome-wide library of guide RNAs (gRNAs), which suppress expression of target genes. The library targeted 20,000 genes within the human genome. The gRNA library-expressing THP-1 cells were stimulated with synthetic CDN, and the cells were subsequently sorted into two populations based on either low (hyporesponsive) or high (hyper-responsive) levels of tdTomato reporter expression. These populations were sequenced to reveal the RNA targets. As expected, gRNAs targeting components of the STING pathway, including IRF3 and STING itself, were enriched in the hyporesponsive cells and depleted in the hyper-responsive cells, corroborating the success of the screening procedure. Other “hits” in the screen were examined for their role in CDN transport.
The transport activity of folate by SLC19A1 can be altered by a variety of organic and inorganic anions, including the compound sulfasalazine (Jansen et al. “Sulfasalazine is a potent inhibitor of the reduced folate carrier: Implications for combination therapies with methotrexate in rheumatoid arthritis.” Arthritis Rheum. 50, 2130-2139 (2004); Goldman, “The characteristics of the membrane transport of amethopterin and the naturally occurring folates.” Ann. N. Y. Acad. Sci. 186, 400-22 (1971)). […] We therefore tested whether sulfasalazine blocks the response of cells to CDNs.
FIG. 2. Panel A) THP-1 cells were stimulated with synthetic CDN (2.5 μg/ml) in the presence of high concentrations of sulfasalazine (SSZ) or vehicle. Reporter expression was measured 20 h post stimulation. […] Reporter expression was measured 20 h post stimulation.

[3] = target: T1, SLC19A1; details: at high doses; cited from earlier work

effect of knocking down SLC19A1 expression on the response to the stimulant [1] | Compound | response of the cells to hIFNβ ([2]; either low or high sulfasalazine concentrations) | response to synthetic CDN stimulation (reporter expression) ([2]; high concentration (1000 μM) of sulfasalazine, synthetic CDN 2.5 μg/ml, 20 h post stimulation) | responsiveness of cells to synthetic CDN compared to untreated cells (reporter expression) ([2]; low concentrations of sulfasalazine (e.g. 100 μM), synthetic CDN 1.25 μg/ml, 20 h post stimulation) | transport of folates and folate-derivatives by SLC19A1 [3]
reduced the response | Nc1ncnc2c1ncn2[C@@H]1O[C@@H]2COP(=O)(O)O[C@H]3[C@@H](O)[C@H](n4cnc5c(N)ncnc54)O[C@@H]3COP(=O)(O)O[C@H]2[C@H]1O [CDA, cyclic di-AMP] | – | – | – | –
– | O=C(O)c1cc(/N=N/c2ccc(S(=O)(=O)Nc3ccccn3)cc2)ccc1O [sulfasalazine] | only marginally affected | complete blocking; also recorded: almost completely blocked | significantly increased | non-competitively inhibits
